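A five-concentration, 48-hour dose response in 96-well plates underlies each endpoint, interpolated linearly between surrounding concentrations. GI50 marks 50% less growth. TGI denotes the concentration required for complete inhibition of growth.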
Experiments:
Assay in all cases: DTP human tumour cell line panel, 48 h
[1] = test system: CAKI-1 renal
[2] = test system: HCT-116 colon
[3] = test system: HCT-15 colon
[4] = test system: HOP-62 NSCLC
[5] = test system: OVCAR-8 ovarian
[6] = test system: SK-OV-3 ovarian
[7] = test system: SN12C renal
[8] = test system: SNB-75 CNS
[9] = test system: UO-31 renal
[10] = test system: 786-0 renal
[11] = test system: NCI-H522 lung
[12] = test system: NCI/ADR-RES ovarian
[13] = test system: T-47D breast

Compound | TGI [1] [µM] | TGI [2] [µM] | TGI [3] [µM] | TGI [4] [µM] | TGI [5] [µM] | TGI [6] [µM] | TGI [7] [µM] | TGI [8] [µM] | TGI [9] [µM] | TGI [10] [µM] | TGI [11] [µM] | TGI [12] [µM] | TGI [13] [µM] | GI50 [1] [µM] | GI50 [3] [µM] | GI50 [4] [µM] | GI50 [11] [µM] | GI50 [5] [µM] | GI50 [8] [µM] | GI50 [13] [µM]
O=C(O)C1=C(CO)Oc2cc3c(cc2C1c1ccc2c(c1)OCO2)OCO3 (stereo not given) | > 100 | > 100 | > 100 | > 100 | > 100 | > 100 | > 100 | > 100 | > 100 | – | – | – | – | – | – | – | – | – | – | –
CC(C)N(CC(=O)O)CC(=O)O | > 100 | > 100 | > 100 | > 100 | > 100 | > 100 | > 100 | > 100 | > 100 | > 100 | > 100 | > 100 | > 100 | – | – | – | – | – | – | –
CC(C)=CCC/C(C)=C/Cc1c2c(c3oc(-c4ccc(O)c(O)c4)c(O)c(=O)c3c1O)C=CC(C)(C)O2 | 5.55 | 8.56 | 8.39 | 10.7 | 7.92 | 8.65 | 14.5 | 11.6 | 10.2 | 7.92 | 2.9 | 11.7 | 7.39 | – | – | – | – | – | – | –
COc1ccc2c(O)c1-c1c(OC)ccc(c1O)SSc1ccc(OC)c(c1O)-c1c(OC)ccc(c1O)SS2 | > 100 | > 100 | – | > 100 | > 100 | > 100 | > 100 | > 100 | 14 | > 100 | 15.5 | – | 62.9 | – | – | – | – | – | – | –
[O-]c1c2c(nn1-c1ccc(F)cc1)c1ccccc1c[n+]2Cc1ccccc1 | 94.7 | 32.9 | 39.1 | 32.1 | 61.9 | 41.8 | 52.5 | 60.5 | 54.9 | – | 21.3 | – | – | – | – | – | – | – | – | –
C/C(=C\[Si](C)(C)c1ccco1)C(C)(O)[C@H](C)O (stereo not given in full) | > 100 | > 100 | > 100 | > 100 | > 100 | > 100 | > 100 | – | – | > 100 | 74.4 | > 100 | 54.2 | – | – | – | – | – | – | –
CCOC(=O)c1sc2nc(SC)nc3c2c1NC(=O)CN3c1ccc(F)cc1 | > 100 | > 100 | – | 33.7 | 69.1 | 57.7 | 69.1 | – | 46.9 | – | > 100 | – | – | – | – | – | – | – | – | –
C=C(C)[C@@H]1CC[C@]2(C(=O)O)CC[C@]3(C)[C@H](CC[C@@H]4[C@@]5(C)C/C(=C/c6ccco6)C(=O)C(C)(C)[C@@H]5CC[C@]43C)[C@@H]12 | > 100 | – | 10.5 | 31.3 | > 100 | – | – | > 100 | – | – | 9.85 | – | 33.3 | 3.5 | 2.59 | 2.77 | 2.81 | 3.5 | > 100 | 3.2
COc1cc2cc(C(=O)N3CC(CCl)c4ccc(NO)cc43)[nH]c2c(OC)c1OC (stereo not given) | 3.44 | > 100 | > 100 | 0.749 | 11.5 | 3.01 | 11.8 | 0.47 | 0.392 | – | 0.354 | 0.48 | > 42.6 | – | – | – | – | – | – | –
CC(=O)NC1C(OCc2ccccc2)OC(CO)C(O)C1OCC(=O)NC(C(=O)NC(CCC(=O)NCCCCCC(=O)Nc1ccc2c(c1)CN1C(=O)c3ccccc3C1=N2)C(N)=O)C(C)C (stereo not given) | > 100 | > 100 | > 100 | 40.8 | 79.5 | 44.6 | > 100 | 41.1 | > 100 | 38 | – | > 100 | 68 | – | – | – | – | – | – | –
CCCCC(CC)C(=O)Oc1ccc(C(=O)c2ccccc2)c(O)c1 (stereo not given) | > 100 | > 100 | > 100 | > 100 | > 100 | > 100 | > 100 | 74.3 | > 100 | – | 98.2 | > 100 | > 100 | – | – | – | – | – | – | –

Source: PubChem BioAssay (NCI)
